# Like-named read-outs stand apart in the source and are kept apart here.
# Columns and labels:
# [1] = system: HIV-2(287) replication; assay: Antiviral activity in HIV-infected CEM-174 cells; format: cell-based
# Protocol: The antiviral activity of the three-drug combination in soluble or LNP form was evaluated in HIV-infected CEM-174 cells as described previously. […] J Acquir Immune Defic Syndr 2003; 34(4):387-397, incorporated herein by reference in its entirety. […] The dose of drugs added to cells represents the sum of bound and unbound drugs in these anti-HIV LNP formulations.
# [2] = Drug incorporation/encapsulation (association) efficiency of multi-drug LNPs by dialysis; format: physicochemical; details: for Degree of incorporation (% total): anti-HIV LNPs LPV/RTV/PMPA
# Protocol: The anti-HIV LNP formulations contain both unbound drug and drugs bound to lipid nanoparticles. […] Drugs were quantified by LC-MS/MS using acetonitrile precipitation. Encapsulation efficiency (EE) was calculated as follows: […]
# [3] = in vivo; details: for concentration at 24 h: sc, Mean drug concentration, Plasma; for LNP/free ratio of plasma AUC 0-168: increase in total drug exposure, fold
# Description: Four young adult male macaques (Macaca nemestrina, 2.9-4.0 kg) were housed and cared for by the Washington National Primate Research Center (WaNPRC) under an approved Institutional Animal Care and Use Committee protocol.
# The vehicle for the first suspension was bicarbonate-buffered saline with 3% ethanol and 0.2% bovine serum albumin. The vehicle for the second suspension was bicarbonate-buffered saline with 8% DMSO and 0.1% Tween 20.
# (§1) Four macaques were divided into two treatment groups (two animals per group). […] Data were normalized to the anti-HIV LNP dose for comparative analysis.
# (§2) Plasma was removed, PBMCs were isolated by the density gradient method, and cells were aliquoted into pellets of approximately 2 million PBMCs each. An inguinal lymph node was surgically excised 24 h after drug administration (n=2 per treatment), LNMCs were isolated by passage through a 100-lm nylon cell strainer (Corning, Tewksbury, Mass.), and cells were aliquoted into pellets of approximately 1-2 million LNMCs each. All samples were stored at −80° C. prior to drug analysis.
# (§3) Plasma concentrations of all three drugs were analyzed simultaneously by liquid chromatography-tandem mass spectrometry using a recently published method. […] Antimicrob Agents Chemother 2014; 58(5):2675-2680, incorporated herein by reference in its entirety. PBMC and LNMC pellets were lysed using 200 μl water/methanol (1:1 v/v), sonicated for 10 min, and then extracted and analyzed using the same method as cited above. Intracellular concentrations were converted to ng/ml with the assumption that each cell has a volume of 4×10^−9 ml. Alberts B, Johnson A, Lewis J, et al. Molecular Biology of the Cell, 4 ed. Garland Science, New York, 2002, incorporated herein by reference in its entirety.
# Data were analyzed by paired two-tailed Student's t-test with p<0.05 considered statistically significant.
# [4] = Intracellular drug concentration in inguinal lymph node mononuclear cells (LNMCs); details: for Kp at 24 h / concentration at 24 h: male, Macaca nemestrina, in vivo; for Kp at 24 h: LN/plasma ratio; for concentration at 24 h: sc, Mean drug concentration, Lymph node
# Protocol: as §1, §2, §3
# [5] = Storage stability at 4° C. (fraction of drug bound, dialysis); format: physicochemical
# Protocol: To test the long-term stability, the multi-drug nanoparticles were stored under refrigeration at 4° C. and were tested for stability after a prolonged period. The lipid-drug combination particles are stable as determined by both particle size and degree of drug association (Table 12). […] Even the hydrophilic compound, which readily diffuses out of most lipid particles in a number of hours, loses a remarkably low fraction of the associated drug after 8, 12, and 17 months in storage. This exceptional stability provides a substantial advantage for translation to clinical application.
# [6] = pH dependent drug release from LPV/RTV/TFV lipid nanoparticles; format: physicochemical; details: 2 hrs
# Description: As described above, we established the pH-dependent association of various drugs to lipids at neutral pH and the consequent release of the drugs when pH is lowered. Also described above, this stable integration and pH-dependent release of drugs from the multiple drug lipid nanoparticles was consistent for both lipophilic and water soluble compounds. To confirm the pH dependent release of the individual drugs from the multiple drug combination lipid nanoparticles, LPV/RTV/PMPA(TFV) lipid nanoparticles, assembled as described above, were subjected to different pH environments, and the free drug component of the supernatant was assayed to determine the amount of release. […] When a lipid nanoparticle is localized in tissues and taken up by HIV-infected cells, the incorporated antiretroviral drugs are then released inside the cell organelles (such as endosome and lysosomes) when the pH is lowered.
# [7] = % Drug association to particles by assembly method; format: physicochemical
# In short: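 Drugs and excipients (e.g., 9:1 DSPC:PEG-DSPE) dissolved in single-phase CHCl3:alcohol:water (65:35:4), dried under reduced pressure, heated above lipid phase transition (e.g., 50° C.). Hydrated with equilibrated buffered saline at that temperature for 3 hr, then size-reduced by shearing or pressurized filtration in liquid phase.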
# [8] = system: HIV-1; assay: microbe, parasite or virus in culture
# [9] = Human immunodeficiency virus 2, CEM174, LPV:RTV:PMPA fixed 1:1:0.5 (m/m/m), LNP form, read-out: EC50 (nM), Drug-lipid nanoparticles with 3 drug combination
# [10] = Human immunodeficiency virus 2, CEM174, LPV:RTV:PMPA fixed 1:1:0.5 (m/m/m), free form, read-out: EC50 (nM), Soluble 3 drug combination
# [11] = Combination 1, lipid:LPV:RTV:TFV 115:10:5:15, large scale
# [12] = Combination 2, lipid:ATZ:RTV:TFV 115:10:5:15, large scale
# [13] = male, Macaca nemestrina, in vivo
# [14] = male, Macaca nemestrina, in vivo, Anti-HIV LNP treatment
# [15] = male, Macaca nemestrina, in vivo, Free drug treatment
# [16] = Human immunodeficiency virus 1, read-out: EC50 in LNP form
# [17] = Human immunodeficiency virus 1, read-out: EC50 in free form
# [18] = plasma, listed as Tenofovir (PMPA)
smiles,measurement,setting,value
"CC(C)c1nc(CN(C)C(=O)N[C@H](C(=O)N[C@@H](Cc2ccccc2)C[C@H](O)[C@H](Cc2ccccc2)NC(=O)OCc2cncs2)C(C)C)cs1 [Ritonavir (RTV), Ritonavir]",EC50,[1]; [9],3 ± 0.8 nM
same,EC50,[1]; [10],98 ± 0.3 nM
same,EC50,"[1]; Human immunodeficiency virus 2, CEM174, read-out: EC50 (nM), Single agent controls, single agent",530 ± 0.2 nM
same,EC50,"[1]; read-out: EC50 (nM), Single agent controls, single agent",1040 nM
same,% particle-bound,[2]; [11],(83.4 ± 1.4) %
same,% particle-bound,[2]; [12],(88.5 ± 3.1) %
same,Degree of incorporation (% total),[2]; clinical scale (15-40 ml),90.7 ± 7.4%
same,Degree of incorporation (% total),[2]; laboratory scale (0.1-0.4 ml),74.2 ± 8.4%
same,"AUC 0-8 (%) of total, LNP",[3]; [13],11.3%
same,"AUC 8-168 (%) of total, LNP",[3]; [13],88.7%
same,AUC fraction (% of total) Anti-HIV LNP 24-168 h,[3]; [13],57.0 ± 12.5%
same,concentration at 24 h,[3]; [14],164 ± 116 ng/mL
same,concentration at 24 h,[3]; [15],5.9 ± 9.3 ng/mL
same,Kp at 24 h,"[4]; Free drug treatment, 24 h",5.5
same,concentration at 24 h,[4]; Anti-HIV LNP treatment,1640 ± 19 ng/mL
same,concentration at 24 h,[4]; Free drug treatment,32.6 ± 32.6 ng/mL
same,Fraction of drug bound in multi-drug nanoparticles (% total),[5]; 0 months,88.30 ± 7.38%
same,Fraction of drug bound in multi-drug nanoparticles (% total),[5]; 8 months,93.01 ± 7.70%
same,Fraction of drug bound in multi-drug nanoparticles (% total),[5]; 12 months,94.91 ± 13.66%
same,Fraction of drug bound in multi-drug nanoparticles (% total),"[5]; 17 months, one batch",90.50%
same,% Drug released from anti-HIV nanoparticles,"[6]; pH 4.0, 37° C.",94.9 ± 0.7%
same,% Drug released from anti-HIV nanoparticles,"[6]; pH 5.5, 37° C.",29.0 ± 11.6%
same,% Drug released from anti-HIV nanoparticles,"[6]; pH 6.5, 37° C.",3.2 ± 4.9%
same,% Drug released from anti-HIV nanoparticles,"[6]; pH 7.4, 37° C.",2 ± 1%
same,"% Drug Association to Particles, LNPs from mixture of dual solvent method",[7],80-100%
same,"% Drug Association to Particles, LNPs from single, miscible solvent method",[7],90-100%
same,EC50,[8]; [16],30 ± 0.8 nM
same,EC50,[8]; [17],98 ± 0.3 nM
"C[C@H](Cn1cnc2c(N)ncnc21)OCP(=O)(O)O [Tenofovir (TFV), [(2R)-1-(6-aminopurin-9-yl)propan-2-yl]oxymethylphosphonic acid]",EC50,[1]; [9],1.5 ± 0.1 nM
same,EC50,[1]; [10],49 ± 0.2 nM
same,EC50,"[1]; read-out: EC50 (nM), Single agent controls, single agent, listed as PMPA",1150 ± 0.7 nM
same,EC50,"[1]; read-out: EC50 (nM), Single agent controls, single agent, listed as Tenofovir (PMPA/TFV)",100 to 6000 nM
same,% particle-bound,[2]; [11],(9.9 ± 2.9) %
same,% particle-bound,[2]; [12],(7.9 ± 1.8) %
same,% particle-bound,"[2]; Combination 3, lipid:LPV:EFV:TFV 200:26.6:20:40, large scale",(7.9) %
same,stable lipid association,[2]; across drug combinations,8-10%
same,Degree of incorporation (% total),"[2]; clinical scale (15-40 ml), listed as PMPA",12%
same,Degree of incorporation (% total),"[2]; clinical scale (15-40 ml), listed as Tenofovir",11.9 ± 3.0%
same,Degree of incorporation (% total),[2]; laboratory scale (0.1-0.4 ml),11.8 ± 5.1%
same,AUC LNP/free ratio,[3]; 0-168 h,7.0
same,"Ratio comparison between treatments (LNP/free), Plasma",[3]; 24 h,3992.8
same,LNP/free ratio of plasma AUC 0-168,[3],7.0
same,LNP/free ratio of plasma AUC 0-168,[3]; listed as TFV,7
same,"AUC 0-8 (%) of total, LNP",[3]; [13],9.1%
same,"AUC 8-168 (%) of total, LNP",[3]; [13],90.9%
same,concentration at 24 h,[3]; [14],3600 ± 3510 ng/mL
same,concentration at 24 h,[3]; [15],0.9 ± 1.1 ng/mL
same,AUC fraction (% of total) Anti-HIV LNP 0-24 h,[3]; plasma,48.8 ± 33.7%
same,AUC fraction (% of total) Free drug 0-24 h,[3]; plasma,99.9 ± 0.2%
same,AUC Free drug 0-168 h,"[3]; plasma, sc 25/14.3/17.1 mg/kg LPV/RTV/PMPA, four animals",56.6 ± 17.04 µg·h/mL
same,AUC fraction (% of total) Anti-HIV LNP 24-168 h,"[3]; plasma, listed as PMPA",51.2%
same,AUC fraction (% of total) Free drug 24-168 h,"[3]; plasma, listed as PMPA",0.1%
same,AUC fraction (% of total) Anti-HIV LNP 24-168 h,[3]; [18],51.2 ± 33.7%
same,AUC fraction (% of total) Free drug 24-168 h,[3]; [18],0.1 ± 0.2%
same,"LNP/free ratio, mononuclear cells of inguinal nodes",[4]; 24 h,0.7
same,"Ratio comparison between treatments (LNP/free), Lymph node",[4]; 24 h,0.7
same,"LNP/free ratio, mononuclear cells of inguinal nodes","[4]; 24 h, listed as TFV",0.7
same,Kp at 24 h,"[4]; Anti-HIV LNP treatment, 24 h",0.1
same,Kp at 24 h,"[4]; Free drug treatment, 24 h",284
same,concentration at 24 h,[4]; Anti-HIV LNP treatment,190 ± 22.8 ng/mL
same,concentration at 24 h,[4]; Free drug treatment,256 ± 31.5 ng/mL
same,Fraction of drug bound in multi-drug nanoparticles (% total),[5]; 0 months,9.32 ± 3.79%
same,Fraction of drug bound in multi-drug nanoparticles (% total),[5]; 8 months,7.72 ± 2.95%
same,Fraction of drug bound in multi-drug nanoparticles (% total),[5]; 12 months,8.79 ± 0.92%
same,Fraction of drug bound in multi-drug nanoparticles (% total),"[5]; 17 months, one batch",7.30%
same,% Drug released from anti-HIV nanoparticles,"[6]; pH 4.0, 37° C.",28.7 ± 0.9%
same,% Drug released from anti-HIV nanoparticles,"[6]; pH 5.5, 37° C.",11.2 ± 1.5%
same,% Drug released from anti-HIV nanoparticles,"[6]; pH 6.5, 37° C.",15.9 ± 5.4%
same,% Drug released from anti-HIV nanoparticles,"[6]; pH 7.4, 37° C.",0 ± 2%
same,"% Drug Association to Particles, LNPs from mixture of dual solvent method",[7],7-30%
same,"% Drug Association to Particles, LNPs from single, miscible solvent method",[7],78-85%
same,% association of hydrophilic drug in typical liposome,[7]; typical liposomes,3-5%
same,EC50,[8]; [16],15 ± 0.1 nM
same,EC50,[8]; [17],49 ± 0.2 nM

# From US10799456B2, “Multiple drug lipid nanoparticle composition and related methods for extended drug levels in blood and lymph tissue” (priority 2015, dated 2020)
